The results in this text go back to patent US20240226332A9, “GENE THERAPY FOR TREM2-ASSOCIATED DISEASES AND DISORDERS” (Eli Lilly and Company, priority 2022, published 2024).

SMILES strings stand for the structures.

In one data set the test system is iPSC-derived microglia. Description: Pharmacological CSF1R-inhibition (PLX3397) cell viability assay in human iPSC-derived microglia. The note with it: 150 nM or 200 nM PLX3397 in 0.1% DMSO, 8 hr, colorimetric viability kit. Type of data set: cell-based. On the procedure:
Methods: The iPSC-derived microglia as described in Example 4 either were treated with excipient (negative control) or were transduced with a rAAV vector having a TREM2 transgene (SEQ ID NO:26) encapsidated in AAV6TM capsid protein (SEQ ID NO:19) at a MOI of 2.0×10^3 vg/cell. 7 days post-transduction, 150 nM or 200 nM of PLX3397 in 0.1% DMSO was added to the cell culture media and incubated for additional 8 hr at 37° C. and 5% CO2. After this period of incubation, cells were assayed for viability using a colorimetric kit (Abcam).

Data set [1] concerns CSF1R-inhibition mouse model (WT C57BL/6 mice fed PLX-chow). Kind of data set: In vivo efficacy of TREM2 rAAV in CSF1R-inhibition (PLX) mouse model for CRL. The method, then:
The rAAV was injected at a dose of either 1.8×10^10 vg (4.49×10^10 vg/g brain) or 1.8×10^11 vg (4.49×10^11 vg/g brain), respectively. Vector particles per g brain weight was based on an adult mouse brain weight of 400 mg. At 8 weeks of age (i.e., 4 weeks post-ICV injection), 1 excipient-treated group and both dose-treated groups were fed with PLX-containing mouse chow. Mice were fed with PLX-chow at 185 mg/kg for 1 week and then sacrificed at 9 weeks of age (i.e., 5 weeks post-ICV injection).
Biodistribution was determined by measuring vg presence using ddPCR (with >50 vg/1 μg gDNA defined as positive).

On to `FC(F)(F)c1ccc(CNc2ccc(Cc3c[nH]c4ncc(Cl)cc34)cn2)cn1` [PLX], for which, in the data set with iPSC-derived microglia, the “cell death (cytotoxicity of PLX treatment)” value was “about 80%”. In addition, the “number of IBA1+ microglia in brain” value in data set [1] (PLX-chow 185 mg/kg for 1 week, either dose of rAAV+PLX compared to excipient+PLX) was “almost complete depletion of microglia throughout the brain”. In addition, in data set [1] (PLX-chow 185 mg/kg for 1 week, rAAV+PLX), the “expression of homeostatic microglia genes (P2RY12, HEXB)” value was “decreased expression of genes associated with homeostatic microglia”. Further, the “CSF1R expression (mRNA; protein)” value in data set [1] (PLX-chow 185 mg/kg for 1 week, rAAV+PLX (both doses) compared to excipient+PLX) is “apparent at both the mRNA and protein level”. Further, the “expression of disease associated microglia (DAM) genes (CCL12, CD48, CD68, LYZ1, PTPRC)” value in data set [1] (excipient+PLX, rAAV+PLX compared to excipient-only) is given as “significant decrease in expression”.
